Laboratory results as given in paper PMC7675582, “Time-Dependent Fluorescence Spectroscopy to Quantify Complex Binding Interactions” (ACS Omega, 2020).

Target: T1, galectin-3 (Homo sapiens, UniProt P17931)
T1 construct: gene LGALS3; recombinant human galectin-3, GST-purified with the GST tag removed
Test: intrinsic tryptophan fluorescence lifetime titration (direct waveform recording, excitation at […] nm), fit with n = […]
Assay type: binding

T1 sequence (P17931 2-250): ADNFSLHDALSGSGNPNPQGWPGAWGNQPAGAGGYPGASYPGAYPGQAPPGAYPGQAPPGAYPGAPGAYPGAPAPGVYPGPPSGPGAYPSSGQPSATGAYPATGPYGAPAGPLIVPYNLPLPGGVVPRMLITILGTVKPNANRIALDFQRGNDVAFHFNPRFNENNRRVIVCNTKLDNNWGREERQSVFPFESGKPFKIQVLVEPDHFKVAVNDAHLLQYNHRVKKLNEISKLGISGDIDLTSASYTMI

Question: For COC1O[C@H](CO)[C@@H](O[C@@H]2O[C@H](CO)[C@H](O)[C@H](O)[C@H]2O)[C@H](O)[C@H]1O (stereo partly shown) [methyllactose], which Kd is on record?
Answer: 54 ± 10 µM
